Data reported in US12691087B2, “Method of enhancing glucose levels in the central nervous system” (THE INSTITUTE FOR ETHNOMEDICINE, priority 2018, dated 2026).

Legend:
[1] = up to 30 g/day over a six-month period; 20 ALS patients; cited from earlier work
[2] = Glucose in cerebral spinal fluid of vervets fed L-serine; type: in vivo, vervets (Chlorocebus pygerythrus)
Method: […]. These were compared to four control vervets who were fed daily control doses of 651 mg/day of rice powder for 42 days.
Cerebral spinal fluid samples were taken during the experiment. The cerebral spinal fluid samples from vervets fed L-serine were compared to cerebral spinal fluid samples from control vervets at 42 days.
Frozen cerebral spinal fluid (CSF) was prepared using equal volumes of CSF and 20% w/v TCA. The combined volume was sonicated (Fisher Scientific Sonic Dismembrator, Model 100) on ice at 2 watts (10 s×3) and left to precipitate at room temperature for 30 minutes. The sample was then centrifuged (Labnet Spectrafuge 16M) at 14,000 g for 5 min. […]
CSF extracts were analyzed on a TSQ Quantiva (Thermo Scientific) triple quadrupole mass spectrometer with an Ultra High Pressure Liquid Chromatography (Waters Acquity-UHPLC) system equipped with a Binary Solvent Manager, Sample Manager, and an Acquity UPLC BEH Amide column (#186004801, 100×2.1 mm, 1.7 μm) at 50° C. […]
The mass spectrometer was operated with a heated electrospray ionization (H-ESI) probe and sheath gas pressure set to 40 (Arb), aux gas set to 2 (Arb), and sweep gas set to 1 (Arb). Samples were analyzed in negative ion mode with a vaporizer temperature of 350° C., capillary temperature of 130° C., and spray voltage 2800v. […]

[3] = Case study of a person with GLUT1 deficiency; type: in vivo, human; details: 30 grams per day oral, single patient
From the text: Evidence for the efficacy of L-serine therapy for glucose deficiency syndrome is supported by a case-study of a person (“the patient”) who suffered ataxia, developmental impairment, reduced social interaction, and fine motor skill deficits as a result of their GLUT1 deficiency. In subjects suffering from glucose deficiency syndrome, there is insufficient glucose transported across the brain to allow proper functioning of brain cells. Since L-serine is transported through a different mechanism across the blood brain barrier, it is possible to increase intracranial glucose concentrations through administration of high doses of L-serine. The patient was administered 30 grams of L-serine per day by oral administration.

[4] = Randomized, placebo-controlled double-blinded study of cognitive ability in healthy post-menopausal women (Rey Auditory Verbal Learning Test); type: in vivo, human; details: 15 g/day for 60 days
From the text: This Example describes a nutritional experiment conducted on post-menopausal women. The study was designed to determine if dietary supplementation with L-[…] grams/day) improves cognitive ability in healthy women when administered over a 60-day period. Forty-eight women ages 55 years, who had not been diagnosed with mild cognitive impairment, probable dementia, or Alzheimer's disease participated as volunteers in this randomized, placebo-controlled double-blinded study. Forty-three women completed the study. Cognitive abilities of each participant were assessed in several different cognitive domains by using the NIH toolbox (Gershon et al, 2013) on an I-Pad, founded on earlier test procedures developed by Atkinson and […] (1968). Cognitive tests included the Rey Auditory Verbal Learning Test which broadly assesses short-term auditory and verbal learning (King et al. 1998). For example, in one test participants were presented 15 unrelated words and asked to repeat them again after 30 minutes. The cognitive assessment was administered to participants at the beginning and the end of the sixty-day study period. The assessment procedure lasted 45 minutes for each individual. L-serine gummies, each at 2.2 grams total weight, and each containing 1.0 grams of L-serine were manufactured in a cGMP FDA-compliant facility by […]). Placebo gummies were manufactured in a similar manner. […] The gummies were placed in sealed foil packets, each packet containing 15 gummies. Microbiological analysis indicated the gummies to be free of bacterial contamination. The materials used for packaging were manufactured by ESP Packaging LLC (Costa Mesa, CA). Each individual foil packet was labeled with a lot number containing the Julian code date. […] The differences between the beginning and end score for each participant in the L-serine treatment and placebo treatment groups were evaluated using a Wilcoxon-Mann-Whitney test with p<0.05 as the significance level. […]

[5] = Storage stability of L-serine; type: physicochemical; details: 24 month storage, room temperature (<30° C.), relative humidity <75%
[6] = system: human neuroblastoma cells (SH-SY5Y); assay: Glucose synthesis by SH-SY5Y cells given L-serine (Amplex Red Glucose Assay, culture medium); type: cell-based; details: 100, 200 and 500 mM L-serine; 0, 24 and 48 hrs; medium deficient in glucose
Method: Cell Culture: SH-SY5Y human neuroblastoma (PD19, […]) were cultured in 150 cm^2 flasks in Dulbecco's Modified Eagle's Medium/Nutrient F-12 Ham (Sigma-Aldrich, Cat. No. D8437) containing 10% fetal bovine serum (FBS), 4 mM L-glutamine, 100 U/mL penicillin, and 100 μg/mL streptomycin at 37° C. (Complete Medium) in a humidified atmosphere of 5% CO2 and 95% air. At between 70 and 90% confluence, the cells were trypsinized with 0.5% Trypsin-EDTA (Thermo Fisher, Cat. No. 15400054) and then 2.5×10^5 cells/well plated in twenty-four-well plates and allowed to adhere overnight (PD22). The following day, the cell culture medium was aspirated, and the cells were washed three times in warm […] Hanks buffered salt solution (HBSS). […] Glucose concentrations were measured using the Amplex® Red Glucose/Glucose Oxidase Assay Kit (Invitrogen). […] Fluorescence was read at excitation 540 nm and emission […] in SoftMax Pro version 7.0.2 on a Molecular Devices Flexstation 3. Glucose concentrations in the samples were calculated from the standard curve. […] Human neuroblastoma cells were incubated in medium deficient in glucose and L-serine, but supplemented with increasing concentrations of L-[…], 200 and 500 mM) for 0, 24 and 48 hrs, then glucose concentrations in the culture medium measured using the Amplex® Red Glucose Assay (Invitrogen).

SMILES: N[C@@H](CO)C(=O)O [L-serine]
- safety [1]: safe
- increase of glucose levels versus control vervets ([2]; 651 mg/day oral for 42 days, significant at p<0.005): great than doubling
- median level of glucose in CSF ([2]; vervets fed 651 mg/day L-serine for 42 days, CSF at 42 days, control 24 mg/100 ml, p<0.005): 58 mg/100 ml
- fine motor skills, including handwriting [3]: improved fine motor skills
- social interaction [3]: improved social interaction
- patient's condition (ability to ride a bicycle and carry cargo) ([3]; within several weeks): rapid improvement
- delayed list recall ([4]; did not achieve statistical significance): trend towards improvement
- mean improvement on the Rey Auditory Verbal Learning Test ([4]; final minus beginning score, placebo 4.0): 7.9
- improvement in learning ability (Rey Auditory Verbal Learning Test) compared to the placebo group ([4]; p<0.01): 98%
- changes in optical rotation or purity on storage [5]: No significant changes
- stability on storage [5]: extraordinarily stable
- glucose concentration in the culture medium compared to Control (0 mM L-serine) [6]: No significant increase
